From paper PMC4613811 (Lung cancer (Amsterdam, Netherlands), 2015)
Like-named read-outs stand apart in the source and are kept apart here.

Legend:
[1] = type: in vivo, human
[2] = tested on: NSCLC with EGFR activating mutations; conditions: cited from earlier work
[3] = co-administered strong CYP3A4 inducer rifampin; cited from earlier work
[4] = cited from earlier work
[5] = NSCLC patients who currently smoke; cited from earlier work
[6] = healthy volunteers, 150 mg dose, cited from earlier work
[7] = tested on: CYP1A2; conditions: caffeine as CYP1A2 substrate; cited from earlier work
[8] = tested on: FMO3; conditions: in vitro; cited from earlier work
[9] = previous studies with dovitinib; cited from earlier work
[10] = Plasma pharmacokinetics of dovitinib, phase I trial; type: in vivo; conditions: human, oral
[11] = tested on: CYP3A4; conditions: in vitro; cited from earlier work
[12] = cited from earlier work; remark: listed apart in the source
[13] = post-dovitinib relative to pre-dovitinib

Question: Which results are given for `C#Cc1cccc(Nc2ncnc3cc(OCCOC)c(OCCOC)cc23)c1` [Erlotinib]?
Answer: AUC(0-t) ([1]; human, plasma, oral, 150 mg): 41000 ng·h/mL; half-life ([1]; human, plasma, oral, 150 mg): 50 ± 53 h; decrease in AUC0–24 during dovitinib co-administration ([1]; p < 0.01, six patients): 97%; decrease in Cmax during dovitinib co-administration ([1]; p = 0.02, six patients): 93%; AUC0–24h geometric mean ratio (D + E:E), mean [1, 13]: 0.03; Cmax geometric mean ratio (D + E:E), mean [1, 13]: 0.07; T1/2, terminal geometric mean ratio (D + E:E), mean [1, 13]: 0.10; time to development of resistance in the majority of patients ([2]; NSCLC patients with EGFR activating mutations): less than 1 year; response rates (RRs) ([2]; NSCLC patients with known EGFR activating mutations): 60–70%; decrease in AUC with rifampin [3]: 66%; decrease in Cmax with rifampin [3]: 29%; median half-life [4]: 36.2 h; steady-state trough concentration, fold lower compared to non-smokers [5]: 2 fold; AUC ([6]; non-smokers): 18,726 ng × h/mL; Cmax ([6]; nonsmokers): 1056 ng/mL; decrease in AUC in smokers ([6]; smokers vs non-smokers): 64%; decrease in Cmax in smokers ([6]; smokers vs nonsmokers): 35%; AUC ([6]; smokers): 6718 ng·h/mL; Cmax ([6]; smokers): 689 ng/mL

Question: With `C#Cc1cccc(Nc2ncnc3cc(OCCOC)c(OCCO)cc23)c1` [OSI-420] as the compound, how does the “AUC0–24h” value ([1]; Erlotinib alone (E), Day 14 ± 4, normalized to erlotinib 150 mg dose, mean ± SD) read?
Answer: The value was 5381 ± 2982 ng·h/mL.

Question: And the “AUC0–24h geometric mean ratio (D + E:E), mean” value [1, 13]?
Answer: Its value is 0.06.

Question: What about the “Cmax geometric mean ratio (D + E:E), mean” value [1, 13] of the same compound?
Answer: The value was 0.17.

Question: For `CN1CCN(c2ccc3nc(-c4c(N)c5c(F)cccc5[nH]c4=O)[nH]c3c2)CC1` [Dovitinib], which “reduction of the AUC of caffeine” value [7] is on record?
Answer: The value was 96%.

Question: What about the “share of metabolism by FMO3” value [8] of the same compound?
Answer: The value was 65–83%.

Question: And the “decreased appetite, regardless of grade” value [9]?
Answer: The value was 37.0%.

Question: And the “diarrhea, regardless of grade” value [9]?
Answer: The value was 68%.

Question: What about the “fatigue, regardless of grade” value [9] of the same compound?
Answer: The value was 40.5%.

Question: And the “nausea, regardless of grade” value [9]?
Answer: Its value is 66.7%.

Question: What about the “vomiting, regardless of grade” value [9] of the same compound?
Answer: Its value is 60.6%.

Question: And the Tmax [10]?
Answer: The Tmax was 6 h.

Question: What about the half-life [10] of the same compound?
Answer: Its half-life is 32 ± 19 h.

Question: And the “share of metabolism by CYP3A4” value [11]?
Answer: Its value is 17–35%.

Question: What about the “effect of food on bioavailability” value [12] of the same compound?
Answer: The value was “food does not alter the bioavailability”.
